This note sets out measurements from patent US20040235794A1, “Remedies for respiratory diseases comprising sphingosine-1-phosphate receptor controller” (priority 2001, published 2004).

In one data set the target is T1, human EDG-5 (Homo sapiens, UniProt O95136).
T1 construct: expressed in transfected cells; host or cells: CHO cells
Description: Antagonistic activity for EDG-5 (S1P-induced intracellular calcium, CHO cells). Format: cell-based. As to conditions: CHO cells expressing human EDG-5, S1P 100 nM. On the procedure: Chinese hamster ovary (CHO) cells which expressed excessively human EDG-5 gene were cultured using a Ham's F12 medium (GIBCO BRL) containing 10% FBS (fetal bovine serum), penicillin/streptomycin, and blasticidin (5 μg/ml). Cultured cells were incubated in a Fura2 (5 μM) -AM solution [Ham's F12 medium containing FBS (10%), HEPES buffer (20 mM, pH7.4), and probenecid (2.5 mM)] at 37° C. for 60 minutes. Then washed once with a Hank's solution (2.5 mM) containing probenecid and immersed into the same solution. A plate was set on a fluorescent drug screening system, and measured for 30 seconds with no stimulation, a solution of a compound (dimethyl sulfoxide solution of 1 nM to 10 μM at the final concentration) to be tested was added. After lapse of 5 minutes, S1P (final concentration: 100 nM) was added, the intracellular calcium ion concentration before and after the addition was measured every 3 seconds (excitation wave length: 340 nm and 380 nm; fluorescent wave length: 500 nm). […]

In data set [1] the test system is Normal human airway smooth muscle cells. Nature of the data set: DNA synthesis (BrdU incorporation) of human airway smooth muscle cells induced by S1P. It is filed as cell-based. On the procedure: Normal human airway smooth muscle cells (BMSC; BioWhittaker) were cultured using MEM-A medium (GIBCO) containing 10% FBS (fetal calf serum), gentamicin (50 μg/mL), amphotericin B (50 ng/mL), and human bFGF, human insulin for 24 hours and deoxybromouridine (BrdU) was added.
Normal human airway smooth muscle cells (BMSC; BioWhittaker) were plated in 96 well plate using MEM-α medium containing human insulin at density of 1×10^4 cells/well. After 24 hour incubation, wash 2 times with Hanks solution, and serum-free medium (MEM-α/gentamicin (50 μg/mL), amphotericin B (50 ng/mL)) was added and incubated for 24 hours. S1P was added at the final concentration of 0.03 μM to 10 μM, deoxybromouridine (BrdU) was added at the same time, and incubated for 6 hours, and then the activity of BrdU incorporation was measured. As control, equal volume of physiological salt solution, which is vehicle of S1P, was added.
Cells were treated with BrdU, and culture supernatant was discarded. 150 μL of Cell fixation·DNA denaturation buffer was added to each well and incubated for 30 minutes. Cell fixation·DNA denaturation buffer was removed and blocking buffer (150 μL) was added. […] After 15 minutes, 25 μL of 2N sulfuric acid was added and absorbance at 450 nm was measured. […]

Another data set deals with T2, human EDG-1 (Homo sapiens, UniProt P21453).
T2 construct: expressed in transfected cells; host or cells: CHO inferred from 'method as in EDG-5'; the EDG-1 sentence says only 'cells'
T2 sequence (P21453 whole entry): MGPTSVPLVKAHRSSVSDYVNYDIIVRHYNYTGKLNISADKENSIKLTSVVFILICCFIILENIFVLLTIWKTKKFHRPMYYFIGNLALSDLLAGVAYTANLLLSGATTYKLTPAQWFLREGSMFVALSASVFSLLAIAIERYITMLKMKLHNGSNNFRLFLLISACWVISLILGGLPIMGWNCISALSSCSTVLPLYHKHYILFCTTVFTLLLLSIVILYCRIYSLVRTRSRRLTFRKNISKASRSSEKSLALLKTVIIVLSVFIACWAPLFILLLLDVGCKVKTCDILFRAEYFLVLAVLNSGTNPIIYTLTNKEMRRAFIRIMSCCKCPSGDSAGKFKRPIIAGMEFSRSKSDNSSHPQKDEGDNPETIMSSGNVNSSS
Description: Antagonistic activity for EDG-1 (S1P-induced intracellular calcium, CHO cells). Format: cell-based. As to conditions: CHO cells expressing human EDG-1, S1P 100 nM.

The subject of data set [2] is anesthetized guinea pig. Description: Inhibition of S1P-induced increase of airway resistance of anesthetized guinea pig in vivo. As to conditions: S1P 0.1 mg/mL inhaled; compound intravenously injected after increase of airway resistance. On the procedure: The measurement of guinea pig airway resistance was carried out by the modified Konzett and Rossler method (Naunyn-Schmied. Arch. Exp. Path. Pharmak. 195, 71- ). Male Hartley guinea pigs (5 to 7 weeks-old, 300 to 500 g body weight in use) were anesthetized by pentobarbital (50 mg/kg intraabdominal dosage), and fixed at dorsal position. Then, trachea and jugular were cannulated. Airway was managed by a respirator (5 mL/stroke, 60 strokes/min) and air road was diverged with a T-tube and connected to broncho-spasm-transducer and airway resistance was measured. To guinea pigs, gallamine (1 mg/kg, i.v.) was administered and immobilized. S1P was vaporized and inhaled with supersonic wave type nebulizer for five minutes (Jpn. J. Pharm. 50, 445-466 (1989)). S1P (0.1 mg/mL) was inhaled to the anesthetized guinea pig, and airway resistance was measured. After a increase of strong airway resistance was recognized, compound 1 was intravenously injected.

For the next data set, the target named is T3, EDG-3 (Homo sapiens, UniProt Q99500).
T3 construct: expressed in transfected cells; host or cells: CHO inferred from 'method as in EDG-5'
T3 sequence (Q99500 whole entry): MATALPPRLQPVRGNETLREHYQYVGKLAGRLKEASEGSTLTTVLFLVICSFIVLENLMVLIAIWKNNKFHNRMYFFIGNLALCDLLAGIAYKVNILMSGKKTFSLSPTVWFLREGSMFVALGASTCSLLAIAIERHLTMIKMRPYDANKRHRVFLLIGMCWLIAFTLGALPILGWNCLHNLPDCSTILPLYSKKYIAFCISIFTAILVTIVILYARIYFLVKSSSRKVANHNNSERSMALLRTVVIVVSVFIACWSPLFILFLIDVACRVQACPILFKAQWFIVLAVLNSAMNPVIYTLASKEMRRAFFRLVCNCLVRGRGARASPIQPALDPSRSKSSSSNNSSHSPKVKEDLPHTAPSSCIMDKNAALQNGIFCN
Nature of the data set: Antagonistic activity for EDG-3 (S1P-induced intracellular calcium, CHO cells). As to conditions: CHO cells expressing EDG-3, S1P 100 nM. Format: cell-based.

Data set [3] relates to human airway smooth muscle cells. Nature of the data set: Cell toxicity assessment using released LDH. Format: cell-based. As to conditions: released LDH as indicator.
Data set [4] has as its system isolated trachea of guinea pig. Description: Constriction of isolated trachea of guinea pig (magnus tube). As to the method:
The trachea of euthanized male Hartley ginea pig was removed and immersed quickly in Krebs-Henseleit solution (112 mmol/L sodium chloride, 5.9 mmol/L potassium chloride, 2.0 mmol/L calcium chloride, 1.2 mmol/L magnesium chloride, 1.2 mmol/L monobasic sodium phosphate, 25.0 mmol/L sodium hydrogen carbonate NaHCO3, 11.5 mmol/L glucose, 4° C.). A removed tissue was hooked as helical sample in magnus tube (volume: 10 mL) filled with Krebs-Henseleit solution (37±1° C., [aerated with 95% O2+5% CO2]). After stabilizing for 60 minutes in tensioned condition with 1 g, contraction was measured by recorder from force displacement transducer via distortion amplifier. The contraction of control was obtained by high concentration solution of potassium chloride (sodium chloride in Krebs-Henseleit solution was all exchanged to potassium chloride), or by stimulation with leukotriene D4 (LTD4) or histamine. After contraction by S1P, EDG-5 antagonist was added. Washing process of a specimen was repeated just in time, after hooked in magnus tube.

Data set [5] has as its system anesthetized guinea pig. Description: Airway resistance of anesthetized guinea pig after inhalation (modified Konzett and Rossler method). Format: in vivo. As to conditions: for increase of airway resistance: inhalation for five minutes, 0.01 to 1 mg/mL, S1P effect at 0.1 to 1 mg/mL. On the procedure:
(§1) The measurement of guinea pig airway resistance was carried out by the modified Konzett and Rossler method (Naunyn-Schmied. Arch. Exp. Path. Pharmak. 195, 71- ). Male Hartley guinea pigs (5 to 7 weeks-old, 300 to 500 g body weight in use) were anesthetized by pentobarbital (50 mg/kg intraabdominal dosage), and fixed at dorsal position. Then, trachea and jugular were cannulated. Airway was managed by a respirator (5 mL/stroke, 60 strokes/min) and air road was diverged with a T-tube and connected to broncho-spasm-transducer and airway resistance was measured. To guinea pigs, gallamine (1 mg/kg, i.v.) was administered and immobilized. In this connection, acetylcholine was administered (30 μg/kg, i.v.) before inhalation of a compound in order to ascertain that that there was no considerable difference in sensitivity of transient airway constriction between individual animals, and then, animals which have coordinative sensitivity were used. S1P (Alexis) was vaporized and inhaled with supersonic wave type nebulizer (Omron NE U-07) for five minutes (Jpn. J. Pharm. 50, 445-466 (1989)). Complete obstruction (total area) was calculated as area as follows; deduct the value of airway resistance at startup of S1P inhalation from the value of airway resistance that is obtained at the time of clamping the tube of tracheal cannula side, and obtained value is multiplied by 10 minutes (5 minutes for inhalation and 5 minutes for post-inhalation). […] S1P (0.01 to 1 mg/mL) was inhaled to anesthetized guinea pig and airway resistance was measured. The reference example was carried out using 10% meylon and sphingosine (Matreya, 0.01 to 1 mg/mL) with method described in example 1.

The test system of data set [6] is anesthetized guinea pig. Nature of the data set: Airway resistance of guinea pig after intravenous administration. Format: in vivo. As to conditions: injected intravenously. As to the method: Male guinea pigs (Standard Hartley, 5 to 7 weeks-old, 300 to 500 g body weight in use) were anesthetized by pentobarbital (50 mg/kg intraabdominal dosage), and fixed at dorsal position. Then, trachea and jugular were cannulated. S1P was injected intravenously, and airway resistance was measured as described in Example 1.

The subject of data set [7] is anesthetized guinea pig. Nature of the data set: Effect of pre-treatment on increase of airway resistance induced by S1P. It is filed as in vivo. As to conditions: pretreatment 100 μg/mL, i.v. On the procedure:
as §1, with “S1P (Alexis) was vaporized and inhaled with supersonic wave type nebulizer (Omron NE U-07) for five minutes (Jpn. J. Pharm. 50, 445-466 (1989)).” left out, “The reference example was carried out using 10% meylon and sphingosine (Matreya, 0.01 to 1 mg/mL) with method described in example 1.” left out

T1 sequence (O95136 whole entry): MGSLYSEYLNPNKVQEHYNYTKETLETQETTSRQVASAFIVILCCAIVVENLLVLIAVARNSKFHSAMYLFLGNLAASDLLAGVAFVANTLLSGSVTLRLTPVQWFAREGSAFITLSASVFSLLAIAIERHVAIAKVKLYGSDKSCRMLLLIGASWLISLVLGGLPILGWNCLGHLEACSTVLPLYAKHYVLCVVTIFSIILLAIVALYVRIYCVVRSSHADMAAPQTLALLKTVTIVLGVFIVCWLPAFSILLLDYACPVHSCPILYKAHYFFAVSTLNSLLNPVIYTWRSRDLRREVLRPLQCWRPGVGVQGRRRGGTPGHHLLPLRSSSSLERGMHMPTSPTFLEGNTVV

Take `Cc1nn(C)c2nc(NNC(=O)Nc3c(Cl)cncc3Cl)cc(C(C)C)c12` [Compound 1, N-(1H-1,3-dimethyl-4-isopropylpyrazolo[3,4-b]pyridine-6-yl)amino-N′-(3,5-dichloropyridine-4-yl)urea]: the 50% inhibitory concentration (IC50) was 10 nM at human EDG-5, more than 10 µM at human EDG-1 and more than 10 µM at EDG-3. Besides, the “antagonism of S1P-induced BrdU incorporation” value in data set [1] (compound 0.01 μM to 10 μM, S1P 3 μM, 6 hours) is recorded as “antagonized against S1P”. In addition, the “inhibition of increase of airway resistance induced by S1P” value in the data set with anesthetized guinea pig [2] is listed as “inhibited”. Besides, in data set [3], the “LDH activity in medium” value was “did not enhancement LDH activity in medium”. Also, in data set [4] (added after contraction by S1P), the “inhibition of constriction induced by S1P” value is “inhibited constriction induced by S1P”.

`CCCCCCCCCCCCC/C=C/[C@@H](O)[C@@H](N)COP(=O)(O)O` [Compound S1P, (2S, 3R, 4E)-2-amino-3-hydroxyoctadeca-4-enyl-1 phosphate]: the “DNA synthesis of human airway smooth muscle cells” value in [1] (S1P 0.03 μM to 10 μM, BrdU 6 hours) is listed as “induces DNA synthesis”. The “increasing effect on airway resistance compared with inhalation of histamine” value in the data set on anesthetized guinea pig [5] (inhalation 0.01 to 1 mg/mL, converted to number of moles) is on record as “at the same level”. The “increase of airway resistance” value in the data set with anesthetized guinea pig [5] is recorded as “strong increase of airway resistance was observed”. In the data set with anesthetized guinea pig [6], the “increase of airway resistance” value is recorded as “Increase of airway resistance was observed” and the “increase of airway resistance compared with histamine” value was “slight compared with that of histamine”. For the same compound, in [4] (S1P 10 μmol/L), the “contraction of guinea pig trachea” value is listed as “very slow contraction”; the “rate of contraction relative to other constricting drug (LTD4, histamine etc.)” value was in the range of 3 to 5 fold slower; the “time to plateau of contraction” value fell in the range of 30 to 60 min.

For the compound `NCCc1c[nH]cn1` [histamine], the entries for the “increase of airway resistance” value in the data set with anesthetized guinea pig [5] and with anesthetized guinea pig [6] were “increase of airway resistance” and “increase”, respectively.

For the compound `CC(C)(C)NCC(O)c1ccc(O)c(CO)c1` (stereo not shown) [salbutamol], the “inhibition of increase of airway resistance induced by S1P” value in the data set on anesthetized guinea pig [7] is given as “inhibited only partially”.

Consider `CCCCCCCCCCCCC/C=C/[C@@H](O)[C@@H](N)CO` [sphingosine], for which the “increase of airway resistance” value in the data set with anesthetized guinea pig [5] is “increase of airway resistance was not observed”.
